This is an account of results in patent US11786533B2, “Use of EZH2 inhibitors for treating cancer” (Epizyme, Inc., priority 2016, dated 2023).

Series [1] has as its system Animal models. In words: In vivo efficacy in animal models.
Series [2] is described as follows: Oral bioavailability. The format is in vivo.
The subject of series [3] is genetically defined cancer cells. In words: Target methyl mark inhibition and killing of cancer cells in vitro. In kind it is cell-based.

With `CCN(c1cc(-c2ccc(CN3CCOCC3)cc2)cc(C(=O)NCc2c(C)cc(C)[nH]c2=O)c1C)C1CCOCC1` [Compound 44], the “in vivo efficacy following inhibition of target methyl mark” value in series [1] is “sustained in vivo efficacy”. In addition, the oral bioavailability result in series [2] was “orally bioavailable”. Moreover, in series [3], the “target methyl mark inhibition resulting in killing of cancer cells” value is listed as “killing of genetically defined cancer cells in vitro”.
